Experimental data published in the supplement of paper PMC9663587.

Tests used:
YKL-5-124 = compound: C=CC(=O)Nc1ccc(C(=O)Nc2[nH]nc3c2CN(C(=O)N[C@H](CN(C)C)c2ccccc2)C3(C)C)cc1 [YKL-5-124]; experiment: increase in dead-cell fraction, 72 h; higher = more death;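 note: breast cancer cell lines in 384-well plates, stained with Hoechst plus LIVE/DEAD far red dye and imaged, cells above an LDR intensity threshold counted dead, Hoechst-negative corpses included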
BSJ-03-123 = compound: CC(=O)c1c(C)c2cnc(Nc3ccc(N4CCN(CCOCCOCCOCCNC(=O)COc5cccc6c5C(=O)N(C5CCC(=O)NC5=O)C6=O)CC4)cn3)nc2n(C2CCCC2)c1=O [BSJ-03-123]; experiment: as above
[1] = compound: CC(=O)c1c(C)c2cnc(Nc3ccc(N4CCNCC4)cn3)nc2n(C2CCCC2)c1=O; experiment: as above
[2] = compound: CCN1CCN(Cc2ccc(Nc3ncc(F)c(-c4cc(F)c5nc(C)n(C(C)C)c5c4)n3)nc2)CC1; experiment: as above
Neratinib/HKI272 [3] = compound: T1, CCOc1cc2ncc(C#N)c(Nc3ccc(OCc4ccccn4)c(Cl)c3)c2cc1NC(=O)/C=C/CN(C)C [Neratinib/HKI272]; experiment: as above
[4] = compound: CCc1cnn2c(NCc3ccc[n+]([O-])c3)cc(N3CCCC[C@H]3CCO)nc12; experiment: as above
LEE011/Ribociclib = compound: CN(C)C(=O)c1cc2cnc(Nc3ccc(N4CCNCC4)cn3)nc2n1C1CCCC1 [LEE011/Ribociclib]; experiment: as above
THZ531 = compound: CN(C)C/C=C/C(=O)Nc1ccc(C(=O)N2CCC[C@@H](Nc3ncc(Cl)c(-c4c[nH]c5ccccc45)n3)C2)cc1 [THZ531]; experiment: as above
THZ1 = compound: CN(C)C/C=C/C(=O)Nc1ccc(C(=O)Nc2cccc(Nc3ncc(Cl)c(-c4c[nH]c5ccccc45)n3)c2)cc1 [THZ1]; experiment: as above
Flavopiridol [5] = compound: T2, CN1CC[C@H](c2c(O)cc(O)c3c(=O)cc(-c4ccccc4Cl)oc23)[C@H](O)C1 [Flavopiridol]; experiment: as above
Neratinib/HKI272 [6] = compound: T1, Neratinib/HKI272; experiment: GR value, 72 h; higher = faster growth (1 = untreated, <0 = killing);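 note: breast cancer and non-malignant breast epithelial lines, nine half-log doses, viable cells counted by Hoechst and LIVE/DEAD dye imaging versus time-zero plates and DMSO controls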
Flavopiridol [7] = compound: T2, Flavopiridol; experiment: as above

SUM44PE
increase in dead-cell fraction (YKL-5-124; 0.001 µM): 0.376
increase in dead-cell fraction (YKL-5-124; 0.003162 µM): 0.0121
increase in dead-cell fraction (YKL-5-124; 0.01 µM): 0.0391
increase in dead-cell fraction (YKL-5-124; 0.03162 µM): 0.053
increase in dead-cell fraction (YKL-5-124; 0.1 µM): 0.0951
increase in dead-cell fraction (YKL-5-124; 0.3162 µM): 0.0965
increase in dead-cell fraction (YKL-5-124; 1 µM): 0.127
increase in dead-cell fraction (YKL-5-124; 3.162 µM): 0.447
increase in dead-cell fraction (BSJ-03-123; 0.001 µM): 0.0021
increase in dead-cell fraction (BSJ-03-123; 0.003162 µM): 0.0071
increase in dead-cell fraction (BSJ-03-123; 0.01 µM): 0.0014
increase in dead-cell fraction (BSJ-03-123; 0.03162 µM): 0.0121
increase in dead-cell fraction (BSJ-03-123; 0.1 µM): 0.0265
increase in dead-cell fraction (BSJ-03-123; 0.3162 µM): 0.0126
increase in dead-cell fraction (BSJ-03-123; 1 µM): 0.0666
increase in dead-cell fraction (BSJ-03-123; 3.162 µM): 0.115
increase in dead-cell fraction ([1]; 0.0003162 µM): -0.0301
increase in dead-cell fraction ([1]; 0.001 µM): 0.0185
increase in dead-cell fraction ([1]; 0.003162 µM): 0.0057
increase in dead-cell fraction ([1]; 0.01 µM): -0.0159
increase in dead-cell fraction ([1]; 0.03162 µM): 0.0328
increase in dead-cell fraction ([1]; 0.1 µM): 0.0351
increase in dead-cell fraction ([1]; 0.3162 µM): 0.0647
increase in dead-cell fraction ([1]; 1 µM): -0.0062
increase in dead-cell fraction ([1]; 3.162 µM): 0.0016
increase in dead-cell fraction ([2]; 0.001 µM): 0.0036
increase in dead-cell fraction ([2]; 0.003162 µM): -0.0095
increase in dead-cell fraction ([2]; 0.01 µM): 0.0221
increase in dead-cell fraction ([2]; 0.03162 µM): 0.0221
increase in dead-cell fraction ([2]; 0.1 µM): -0.017
increase in dead-cell fraction ([2]; 0.3162 µM): 0.0843
increase in dead-cell fraction ([2]; 1 µM): 0.0751
increase in dead-cell fraction ([2]; 3.162 µM): 0.0328
increase in dead-cell fraction ([2]; 10 µM): 0.697
increase in dead-cell fraction (Neratinib/HKI272 [3]; 0.0003162 µM): -0.0158
increase in dead-cell fraction (Neratinib/HKI272 [3]; 0.001 µM): -0.0227
increase in dead-cell fraction (Neratinib/HKI272 [3]; 0.003162 µM): -0.0156
increase in dead-cell fraction (Neratinib/HKI272 [3]; 0.01 µM): 0.029
increase in dead-cell fraction (Neratinib/HKI272 [3]; 0.03162 µM): 0.0991
increase in dead-cell fraction (Neratinib/HKI272 [3]; 0.1 µM): 0.118
increase in dead-cell fraction (Neratinib/HKI272 [3]; 0.3162 µM): 0.137
increase in dead-cell fraction (Neratinib/HKI272 [3]; 1 µM): 0.22
increase in dead-cell fraction (Neratinib/HKI272 [3]; 3.162 µM): 0.358
increase in dead-cell fraction ([4]; 0.0001 µM): 0.0041
increase in dead-cell fraction ([4]; 0.0003162 µM): -0.0148
increase in dead-cell fraction ([4]; 0.001 µM): 0.0007
increase in dead-cell fraction ([4]; 0.003162 µM): -0.0141
increase in dead-cell fraction ([4]; 0.01 µM): 0.102
increase in dead-cell fraction ([4]; 0.03162 µM): 0.894
increase in dead-cell fraction (LEE011/Ribociclib; 0.001 µM): 0.0007
increase in dead-cell fraction (LEE011/Ribociclib; 0.003162 µM): -0.0447
increase in dead-cell fraction (LEE011/Ribociclib; 0.01 µM): 0.0327
increase in dead-cell fraction (LEE011/Ribociclib; 0.03162 µM): -0.0402
increase in dead-cell fraction (LEE011/Ribociclib; 0.1 µM): 0.0001
increase in dead-cell fraction (LEE011/Ribociclib; 0.3162 µM): -0.0342
increase in dead-cell fraction (LEE011/Ribociclib; 1 µM): 0.0417
increase in dead-cell fraction (LEE011/Ribociclib; 3.162 µM): -0.0186
increase in dead-cell fraction (LEE011/Ribociclib; 10 µM): -0.0286
increase in dead-cell fraction (THZ531; 0.0001 µM): -0.0163
increase in dead-cell fraction (THZ531; 0.0003162 µM): -0.0027
increase in dead-cell fraction (THZ531; 0.001 µM): 0.0202
increase in dead-cell fraction (THZ531; 0.003162 µM): -0.008
increase in dead-cell fraction (THZ531; 0.01 µM): -0.0392
increase in dead-cell fraction (THZ531; 0.03162 µM): -0.0411
increase in dead-cell fraction (THZ531; 0.1 µM): 0.0916
increase in dead-cell fraction (THZ1; 0.0001 µM): 0.0181
increase in dead-cell fraction (THZ1; 0.0003162 µM): -0.0186
increase in dead-cell fraction (THZ1; 0.001 µM): 0.0262
increase in dead-cell fraction (THZ1; 0.003162 µM): -0.0493
increase in dead-cell fraction (THZ1; 0.01 µM): 0.0625
increase in dead-cell fraction (THZ1; 1 µM): 0.0767
increase in dead-cell fraction (Flavopiridol [5]; 0.0001 µM): -0.0156
increase in dead-cell fraction (Flavopiridol [5]; 0.0003162 µM): -0.0093
increase in dead-cell fraction (Flavopiridol [5]; 0.001 µM): -0.0478
increase in dead-cell fraction (Flavopiridol [5]; 0.003162 µM): -0.0522
increase in dead-cell fraction (Flavopiridol [5]; 0.01 µM): 0.0491
increase in dead-cell fraction (Flavopiridol [5]; 0.03162 µM): 0.0151
increase in dead-cell fraction (Flavopiridol [5]; 0.1 µM): 0.263
increase in dead-cell fraction (Flavopiridol [5]; 0.3162 µM): 0.457
GR value (Neratinib/HKI272 [6]; 0.0003162 µM): 0.966 GR
GR value (Neratinib/HKI272 [6]; 0.001 µM): 0.921 GR
GR value (Neratinib/HKI272 [6]; 0.003162 µM): 0.764 GR
GR value (Neratinib/HKI272 [6]; 0.01 µM): 0.465 GR
GR value (Neratinib/HKI272 [6]; 0.03162 µM): 0.417 GR
GR value (Neratinib/HKI272 [6]; 0.1 µM): 0.312 GR
GR value (Neratinib/HKI272 [6]; 0.3162 µM): 0.209 GR
GR value (Neratinib/HKI272 [6]; 1 µM): 0.0292 GR
GR value (Neratinib/HKI272 [6]; 3.162 µM): -0.218 GR
GR value (Flavopiridol [7]; 0.0001 µM): 0.968 GR
GR value (Flavopiridol [7]; 0.0003162 µM): 0.969 GR
GR value (Flavopiridol [7]; 0.001 µM): 0.862 GR
GR value (Flavopiridol [7]; 0.003162 µM): 0.951 GR
GR value (Flavopiridol [7]; 0.01 µM): 0.707 GR
GR value (Flavopiridol [7]; 0.03162 µM): 0.489 GR
GR value (Flavopiridol [7]; 0.1 µM): -0.0333 GR
GR value (Flavopiridol [7]; 0.3162 µM): -0.573 GR
